{
  "source": "patent US20180267043A1",
  "about": "“USE OF BIOMARKERS FOR PREDICTING CLINICAL SENSITIVITY TO CANCER TREATMENT” (CELGENE CORPORATION, priority 2014, published 2018)",
  "key": {"[1]": {"system": "GSPT1/eRF3a, GSPT2/eRF3b, and HBS1L/eRF3c", "assay": "Immunoblotting of CRBN/Compound C substrates in 293 HEK cells", "assay_type": "cell-based, human", "conditions": "8 hours", "method": "Immunblotting analysis was performed to confirm GSPT1/eRF3a, GSPT2/eRF3b, and HBS1L/eRF3c as authentic substrates of the CRBN/Compound C complex. 293 HEK cells transiently transfected with HA-tagged HBS1L or FLAG-tagged GSPT2 were treated with Compound at the indicated concentrations for 8 hours."}, "HEK 293FT cells": {"system": "HEK 293FT cells", "assay": "CellTiter-Glo cell viability assay, HEK 293FT cells with GSPT1 overexpression", "assay_type": "cell-based, human", "method": "The effect of overexpression of GSPT1 on Compound C-induced growth inhibition was tested in HEK 293FT cells. 293 cells stably expressing GSPT1 driven by three different promoters were generated. To these cells, Compound C was added at concentration of 0, 1 nM, 10 nM, 100 nM, or 1000 nM. Cell proliferation was measured by CellTiter-Glo cell viability assay (RLU-Relative Luminescent Unit) at day 2. […] The expression level of GSPT1 was measured at 10 hours after compound treatment in the right part of FIG. 7. […] Thus, overexpression of GSPT1 confers Compound C resistance to HEK 293FT cells."}, "DF15": {"system": "DF15", "assay": "CellTiter-Glo cell viability assay after GSPT1 knockdown, DF15", "assay_type": "cell-based, human", "conditions": "DF15 expressing shGSPT1-1 or shGSPT1-3 vs parental or control shRNA, 0.01 nM to 0.1 μM, day 9", "method": "The effect of depletion of GSPT1 on the anti-proliferative effect of Compound C was determined in human multiple myeloma (MM) cell lines DF15 and RPMI-8226. Treatment compounds were titrated from 0.01 nM to 0.1 μM. Cell proliferation was measured by the CellTiter-Glo cell viability assay (RLU-Relative Luminescent Unit) at day 9 after GSPT1 knockdown by shGSPT1-1 or shGSPT1-3."}, "Molm13": {"system": "Molm13", "assay": "CellTiter-Glo cell viability assay, Molm13", "assay_type": "cell-based, human", "conditions": "48 hours", "method": "The effect of overexpression of GSPT1 on the anti-proliferative effect of Compound C was determined in human histiocytic lymphoma cell line U937 and human leukemia cell line Molm13. Treatment compounds were titrated from 0.1 nM to 1 μM. Cell proliferation was measured by CellTiter-Glo cell viability assay at 48 hours after treatment."}, "PERK/EIF2a/ATF4 pathway": {"system": "PERK/EIF2a/ATF4 pathway", "assay": "mRNA expression of PERK/EIF2a/ATF4 pathway components in DF15 MM cells", "assay_type": "cell-based, human", "conditions": "20 nM", "method": "Cells were treated with DMSO alone or 20 nM Compound C. After 5 or 10 hours, the expression level of various cellular components along UPR or apoptosis pathways was measured. […] Loss of BIP immunoreactivity indicates an induction of UPR."}, "[2]": {"system": "GSPT1, UPR or apoptosis pathways", "assay": "Protein level of UPR and apoptosis components in KG1 cells", "assay_type": "cell-based, human", "method": "Cells were treated with DMSO alone or 20 nM Compound C. The expression levels of various cellular components along UPR or apoptosis pathways were measured at various time points post treatment."}, "XBP1 and ATF6 pathways": {"system": "XBP1 and ATF6 pathways", "assay": "RNA level of XBP1 and ATF6 pathway components in KG1 cells", "assay_type": "cell-based, human", "conditions": "KG1, 20 nM, 2, 4, or 6 hours", "method": "The mechanism of Compound C-activated XBP1 and ATF6 pathways of UPR was studied in KG1 cells. Cells were treated with DMSO or 20 nM Compound C for 2, 4, or 6 hours. The RNA level of variant cellular components along the XBP1 and ATF6 pathways was measured and normalized with GAPDH."}, "[3]": {"system": "normal peripheral blood mononuclear cell (PBMC)", "assay": "Response of normal PBMC: GSPT1, ATF3, DDIT3 and apoptosis indicators", "assay_type": "cell-based", "conditions": "20 hours", "method": "The response of PBMC to Compound C treatment was monitored by measuring the expression of GSPT1, ATF3, DDIT3, and downstream apoptosis indicators in PBMC. PBMCs were treated with 1 nM, 10 nM, 100 nM, or 1000 nM of Compound C for 20 hours. […] Thus, GSPT1, ATF3, DDIT3, cleaved Caspase-3, and cleaved PARP can serve as biomarkers predicting the toxicity of Compound C."}, "[4]": {"conditions": "PBMC, 1 nM, 10 nM, 100 nM, or 1000 nM"}},
  "data": [
    {"smiles": "Cc1ccc(NC(=O)NCc2ccc3c(c2)CN(C2CCC(=O)NC2=O)C3=O)cc1Cl", "note": "(stereo not drawn) [Compound C, 1-(3-chloro-4-methylphenyl)-3-((2-(2,6-dioxopiperidin-3-yl)-1-oxoisoindolin-5-yl)methyl)urea]", "values": [
      {"measurement": "Binding partners of CRBN induced by compound binding", "setting": "[1]", "result": "GSPT1/eRF3a, GSPT2/eRF3b, and HBS1L/eRF3c are binding partners of CRBN induced by Compound C binding"},
      {"measurement": "Degradation of GSPT1/eRF3a, GSPT2/eRF3b, and HBS1L/eRF3c", "setting": "[1]; increased concentration", "result": "induces degradation"},
      {"measurement": "Cell proliferation (growth inhibition)", "setting": "HEK 293FT cells; GSPT1 overexpression driven by different promoters, 0-1000 nM, day 2", "result": "confers various degrees of resistance to Compound C-induced growth inhibition"},
      {"measurement": "Cell proliferation (compound resistance)", "setting": "HEK 293FT cells; cells expressing CMV-GSPT1", "result": "exhibit the highest level of Compound C resistance"},
      {"measurement": "Cell proliferation", "setting": "HEK 293FT cells; parental cells, 0-1000 nM, day 2", "result": "inhibits cell proliferation in parental cells"},
      {"measurement": "Anti-proliferative effect", "setting": "DF15", "result": "increased anti-proliferative effect"},
      {"measurement": "Anti-proliferative effect", "setting": "Molm13; Molm13, exogenous GSPT1 overproduced via EF1a promoter", "result": "the anti-proliferative effect of Compound C reduces"},
      {"measurement": "Anti-proliferative effect", "setting": "Molm13; Molm13 CRBN −/− cells", "result": "completely abolished"},
      {"measurement": "Cell proliferation", "setting": "Molm13; Molm13 parental cells, 0.1 nM to 1 μM", "result": "inhibits cell proliferation"},
      {"measurement": "Expression of ATF4, ATF3, DDIT3, PPP1R15A, and GADD45A (FIG. 16C)", "setting": "PERK/EIF2a/ATF4 pathway", "result": "Compound C-induced expression of ATF4, ATF3, DDIT3, PPP1R15A, and GADD45A"},
      {"measurement": "Levels of Mcl-1 and pS112-BAD", "setting": "[2]; KG1 (FIG. 18B)", "result": "decrease in response to Compound C treatment"},
      {"measurement": "Levels of cleaved Caspase-8, BID, cleaved Caspase-9, cleaved Caspase-3, cleaved Caspase-7, and cleaved PARP", "setting": "[2]; KG1 (FIG. 18B)", "result": "increase in response to Compound C treatment"},
      {"measurement": "Degradation of GSPT1", "setting": "[2]; KG1, 20 nM", "result": "induced degradation of GSPT1"},
      {"measurement": "Expression of ATF-4 and ATF-3", "setting": "[2]; KG1, 20 nM", "result": "increased the expression of ATF-4 and its downstream target ATF-3"},
      {"measurement": "Levels of pEIF2α, DDIT3, cleaved Caspase-3, and cleaved PARP", "setting": "[2]; KG1, 20 nM", "result": "also increased"},
      {"measurement": "RNA level of ATF6 pathway components (XBP1)", "setting": "XBP1 and ATF6 pathways", "result": "induces expression"},
      {"measurement": "RNA level of XBP1 pathway components (SEC24D, DNAJB9, EDEM1, XBP1)", "setting": "XBP1 and ATF6 pathways", "result": "induces expression"},
      {"measurement": "Cleaved Caspase-3", "setting": "[3]; [4]", "result": "increasing cleaved Caspase-3"},
      {"measurement": "Expression of GSPT1", "setting": "[3]; [4]", "result": "decreases the expression of GSPT1"},
      {"measurement": "Level of p-EIF2α, ATF3 and DDIT3", "setting": "[3]; [4]", "result": "increases the level"},
      {"measurement": "Apoptosis", "setting": "[3]; normal PBMC", "result": "induces apoptosis"}
    ]}
  ]
}
